Measured values as given in patent US20140171357A1, “VANCOMYCIN DERIVATIVES” (Seachald Pharmaceuticals, Inc., priority 2011, published 2014).
Values after ≈ are worked out from the molar mass of the structure shown.

Tests used:
[1] = system: VanB vancomycin-resistant E. faecalis (12); assay: MIC broth microdilution, VanB E. faecalis; details: for MIC50 / MIC90: Enterococcus faecalis
[2] = system: S. aureus ATCC 25923; assay: Neutropenic murine thigh infection model; details: for AUCc-t (AUC difference between control and treated animals): 24 h time kill
[3] = system: vancomycin-susceptible E. faecium (21); assay: MIC broth microdilution, vancomycin-susceptible E. faecium; details: for MIC50 / MIC90: Enterococcus faecium
[4] = system: vancomycin-resistant S. aureus (VRSA, 6); assay: MIC broth microdilution, VRSA
[5] = system: methicillin-resistant S. aureus (MRSA, 22); assay: MIC broth microdilution, MRSA; details: for MIC50 / MIC90: Staphylococcus aureus, MRSA
[6] = system: VanC enterococci (22); assay: MIC broth microdilution, vanC-carrying enterococci
[7] = system: VanB vancomycin-resistant E. faecium (10); assay: MIC broth microdilution, VanB E. faecium; details: for MIC50 / MIC90: Enterococcus faecium
[8] = system: vancomycin-susceptible E. faecalis (23); assay: MIC broth microdilution, vancomycin-susceptible E. faecalis; details: for MIC50 / MIC90: Enterococcus faecalis
[9] = system: β-hemolytic streptococci (23); assay: MIC broth microdilution, β-hemolytic streptococci
[10] = system: S. pneumoniae (22); assay: MIC broth microdilution, S. pneumoniae; details: S. pneumoniae (22); MHB + lysed horse blood
[11] = system: vancomycin-intermediate S. aureus (VISA, 5); assay: MIC broth microdilution, VISA
[12] = system: Staphylococcus aureus (65 strains); assay: MIC broth microdilution, S. aureus all isolates; details: for MIC50 / MIC90: Staphylococcus aureus
[13] = system: VanA vancomycin-resistant E. faecalis (11); assay: MIC broth microdilution, VanA E. faecalis; details: for MIC50 / MIC90: Enterococcus faecalis
[14] = system: heterogeneous VISA (hVISA, 10); assay: MIC broth microdilution, hVISA
[15] = system: methicillin-susceptible S. aureus (MSSA, 22); assay: MIC broth microdilution, MSSA; details: for MIC50 / MIC90: Staphylococcus aureus, MSSA
[16] = system: Staphylococcus epidermidis (43 strains); assay: MIC broth microdilution, S. epidermidis; details: for MIC50 / MIC90: Staphylococcus epidermidis
[17] = system: VanA vancomycin-resistant E. faecium (10); assay: MIC broth microdilution, VanA E. faecium; details: for MIC50 / MIC90: Enterococcus faecium
[18] = system: E. faecalis; assay: MIC broth microdilution, E. faecalis regardless of vancomycin susceptibility; details: Enterococcus faecalis
[19] = 1 mg/kg single intraperitoneal dose
[20] = 4 mg/kg single intraperitoneal dose
[21] = 16 mg/kg single intraperitoneal dose
[22] = E. faecium, vancomycin-susceptible (21)
[23] = E. faecalis, vancomycin-susceptible (23)
[24] = β-hemolytic streptococci (23), MHB + lysed horse blood
[25] = S. aureus (65), all resistance subsets

In the case of CNC(CC(C)C)C(=O)NC1C(=O)NC(CC(N)=O)C(=O)NC2C(=O)NC3C(=O)NC(C(=O)NC(C(=O)O)c4cc(O)c(CNCCOCCOCCN)c(O)c4-c4cc3ccc4O)C(O)c3ccc(c(Cl)c3)Oc3cc2cc(c3OC2OC(CO)C(O)C(O)C2OC2CC(C)(NCc3ccc(OCc4ccc(Cl)c(Cl)c4)cc3)C(O)C(C)O2)Oc2ccc(cc2Cl)C1O (centres unmarked) [Compound 28], the “MIC 50%” value ([1]; E. faecalis, VanB (12)) is reported as 0.12 µg/mL (≈ 0.064 µM), the “MIC 90%” value ([1]; E. faecalis, VanB (12)) is reported as 0.12 µg/mL (≈ 0.064 µM) and the “Max Kill (maximum decrease from initial infection level)” value [2, 19] is reported as 0.61 Log10 CFU/thigh. For the same compound, the “AUCc-t (AUC difference between control and treated animals)” value [2, 19] was 19.1 (Log10 CFU/thigh)/hr, the “Max Kill (maximum decrease from initial infection level)” value [2, 20] was 0.75 Log10 CFU/thigh and the “AUCc-t (AUC difference between control and treated animals)” value [2, 20] was 17.3 (Log10 CFU/thigh)/hr. The “Max Kill (maximum decrease from initial infection level)” value [2, 21] was −0.02 Log10 CFU/thigh, the “AUCc-t (AUC difference between control and treated animals)” value [2, 21] was 38.2 (Log10 CFU/thigh)/hr and the “MIC 50%” value [3, 22] was 0.03 µg/mL (≈ 0.016 µM). For the same compound, the “MIC 90%” value [3, 22] was 0.06 µg/mL (≈ 0.032 µM), the “MIC 50%” value [4] was 2 µg/mL (≈ 1.07 µM) and the “MIC 50%” value ([5]; MRSA (22)) was 0.06 µg/mL (≈ 0.032 µM). The “MIC 90%” value ([5]; MRSA (22)) was 0.06 µg/mL (≈ 0.032 µM), the “MIC 50%” value ([6]; VanC enterococci (22)) was 0.06 µg/mL (≈ 0.032 µM) and the “MIC 90%” value ([6]; VanC enterococci (22)) was 0.25 µg/mL (≈ 0.133 µM). The “MIC 50%” value ([7]; E. faecium, VanB (10)) was 0.03 µg/mL (≈ 0.016 µM), the “MIC 90%” value ([7]; E. faecium, VanB (10)) was 0.06 µg/mL (≈ 0.032 µM) and the “MIC 50%” value [8, 23] was 0.06 µg/mL (≈ 0.032 µM). For the same compound, the “MIC 90%” value [8, 23] was 0.12 µg/mL (≈ 0.064 µM), the “fold more potent than teicoplanin and daptomycin” value ([9]; β-hemolytic streptococci) was “two- to four” and the “fold more potent than vancomycin” value ([9]; β-hemolytic streptococci) was “four- to eight”. For the same compound, the “MIC 50%” value [9, 24] was 0.03 µg/mL, the “MIC 90%” value [9, 24] was 0.06 µg/mL and the “MIC 50%” value [10] was 0.03 µg/mL. For the same compound, the “MIC 90%” value [10] was 0.06 µg/mL, the “MIC 50%” value [11] was 0.12 µg/mL (≈ 0.064 µM) and the “MIC 50%” value [12, 25] was 0.06 µg/mL (≈ 0.032 µM). For the same compound, the “MIC 90%” value [12, 25] was 0.12 µg/mL (≈ 0.064 µM), the “MIC 50%” value ([13]; E. faecalis, VanA (11)) was 2 µg/mL (≈ 1.07 µM) and the “MIC 90%” value ([13]; E. faecalis, VanA (11)) was 4 µg/mL (≈ 2.13 µM). The “MIC 50%” value [14] was 0.06 µg/mL (≈ 0.032 µM), the “MIC 90%” value [14] was 0.06 µg/mL (≈ 0.032 µM) and the “MIC 50%” value ([15]; MSSA (22)) was 0.06 µg/mL (≈ 0.032 µM). For the same compound, the “MIC 90%” value ([15]; MSSA (22)) was 0.06 µg/mL (≈ 0.032 µM), the “MIC 50%” value ([16]; S. epidermidis (43)) was 0.03 µg/mL (≈ 0.016 µM) and the “MIC 90%” value ([16]; S. epidermidis (43)) was 0.03 µg/mL (≈ 0.016 µM). The “MIC 50%” value ([17]; E. faecium, VanA (10)) was 0.5 µg/mL (≈ 0.267 µM) and the “MIC 90%” value ([17]; E. faecium, VanA (10)) was 1 µg/mL (≈ 0.533 µM).
For CCCCCCCCCC(=O)N[C@@H](Cc1c[nH]c2ccccc12)C(=O)N[C@H](CC(N)=O)C(=O)N[C@@H](CC(=O)O)C(=O)N[C@@H]1C(=O)NCC(=O)N[C@@H](CCCN)C(=O)N[C@@H](CC(=O)O)C(=O)N[C@H](C)C(=O)N[C@@H](CC(=O)O)C(=O)NCC(=O)N[C@H](CO)C(=O)N[C@@H]([C@H](C)CC(=O)O)C(=O)N[C@@H](CC(=O)c2ccccc2N)C(=O)O[C@@H]1C [Daptomycin, reference compound], the MIC50 [1] was 0.5 µg/mL (≈ 0.309 µM), the MIC90 [1] was 1 µg/mL (≈ 0.617 µM) and the MIC50 [3] was 2 µg/mL (≈ 1.23 µM). The MIC90 [3] was 2 µg/mL (≈ 1.23 µM), the MIC50 [5] was 0.25 µg/mL (≈ 0.154 µM) and the MIC90 [5] was 0.5 µg/mL (≈ 0.309 µM). It also gave an MIC50 [6] of 1 µg/mL (≈ 0.617 µM), an MIC90 [6] of 2 µg/mL (≈ 1.23 µM) and an MIC50 [18] of 0.5 to 1 µg/mL (≈ 0.309 to 0.617 µM). The MIC90 [18] was 1 to 2 µg/mL (≈ 0.617 to 1.23 µM), the MIC50 [7] was 2 µg/mL (≈ 1.23 µM) and the MIC90 [7] was 2 µg/mL (≈ 1.23 µM). For the same compound, the MIC50 [8] was 1 µg/mL (≈ 0.617 µM), the MIC90 [8] was 2 µg/mL (≈ 1.23 µM) and the MIC50 [12] was 0.25 µg/mL (≈ 0.154 µM). The MIC90 [12] was 1 µg/mL (≈ 0.617 µM), the MIC50 [13] was 1 µg/mL (≈ 0.617 µM) and the MIC90 [13] was 2 µg/mL (≈ 1.23 µM). It also gave an MIC50 [15] of 0.25 µg/mL (≈ 0.154 µM), an MIC90 [15] of 0.5 µg/mL (≈ 0.309 µM) and an MIC50 [16] of 0.25 µg/mL (≈ 0.154 µM). The MIC90 [16] was 0.5 µg/mL (≈ 0.309 µM), the MIC50 [17] was 2 µg/mL (≈ 1.23 µM) and the MIC90 [17] was 2 µg/mL (≈ 1.23 µM).
CC(=O)NC[C@H]1CN(c2ccc(N3CCOCC3)c(F)c2)C(=O)O1 [Linezolid, reference compound] was tested, and the MIC50 [1] was 1 µg/mL (≈ 2.96 µM), the MIC90 [1] was 1 µg/mL (≈ 2.96 µM) and the MIC50 [3] was 1 µg/mL (≈ 2.96 µM). The MIC90 [3] was 2 µg/mL (≈ 5.93 µM), the MIC50 [5] was 1 µg/mL (≈ 2.96 µM) and the MIC90 [5] was 1 µg/mL (≈ 2.96 µM). For the same compound, the MIC50 [6] was 1 µg/mL (≈ 2.96 µM), the MIC90 [6] was 2 µg/mL (≈ 5.93 µM) and the MIC50 [18] was 1 µg/mL (≈ 2.96 µM). For the same compound, the MIC90 [18] was 1 µg/mL (≈ 2.96 µM), the MIC50 [7] was 1 µg/mL (≈ 2.96 µM) and the MIC90 [7] was 1 µg/mL (≈ 2.96 µM). The MIC50 [8] was 1 µg/mL (≈ 2.96 µM), the MIC90 [8] was 1 µg/mL (≈ 2.96 µM) and the MIC50 [12] was 1 µg/mL (≈ 2.96 µM). For the same compound, the MIC90 [12] was 1 µg/mL (≈ 2.96 µM), the MIC50 [13] was 1 µg/mL (≈ 2.96 µM) and the MIC90 [13] was 1 µg/mL (≈ 2.96 µM). For the same compound, the MIC50 [15] was 1 µg/mL (≈ 2.96 µM), the MIC90 [15] was 1 µg/mL (≈ 2.96 µM) and the MIC50 [16] was 0.5 µg/mL (≈ 1.48 µM). It also gave an MIC90 [16] of 1 µg/mL (≈ 2.96 µM), an MIC50 [17] of 1 µg/mL (≈ 2.96 µM) and an MIC90 [17] of 1 µg/mL (≈ 2.96 µM).
